Earlier results, collected in US5559147A, “Aromatic fluorine-containing organotin compounds and anti-tumour composition” (Pharmachemie B.V., priority 1994, dated 1996).

Tests used:
MCF-7, a mammary tumour = settings: earlier work
WiDR, a colon carcinoma = settings: earlier work
[1] = system: two human tumour cell lines, MCF-7 and WiDR; settings: in words

{(2,3,6-F3 C6 H3 CO2 SnBu2)2 O}2
ID50 (MCF-7, a mammary tumour): 0.013 µg/mL
ID50 (WiDR, a colon carcinoma): 0.2 µg/mL

{(4-F-C6 H4 CO2 SnBu2)2 O}2
ID50 (MCF-7, a mammary tumour): 0.081 µg/mL
ID50 (WiDR, a colon carcinoma): 0.36 µg/mL
ID50 compared with reference drug [1]: comparable to those observed for etoposide

{(2-F-C6 H4 CH=CHC2 SnBu2)2 O}2
ID50 (MCF-7, a mammary tumour): 0.028 µg/mL
ID50 (WiDR, a colon carcinoma): 0.368 µg/mL

{(2,3-F2 C6 H3 CO2 SnBu2)2 O}2
ID50 (MCF-7, a mammary tumour): 0.009 µg/mL
ID50 (WiDR, a colon carcinoma): 0.12 µg/mL
ID50 compared with reference drug [1]: comparable to mitomycin C

CCC[CH2][Sn]([CH2]CCC)([O]C(=O)c1ccc(F)cc1)[O]C(=O)c1ccc(F)cc1 [(4-F-C6 H4 CO2)2 SnBu2]
ID50 (MCF-7, a mammary tumour): 0.09 µg/mL
ID50 (WiDR, a colon carcinoma): 0.309 µg/mL
ID50 compared with reference drug [1]: comparable to those observed for etoposide

{(4-F-C6 H4 CH2 CO2 SnBu2)2 O}2
ID50 (MCF-7, a mammary tumour): 0.038 µg/mL
ID50 (WiDR, a colon carcinoma): 0.268 µg/mL

{(2,3,4,5-F4 C6 HCO2 SnBu2)2 O}2
ID50 (MCF-7, a mammary tumour): 0.035 µg/mL
ID50 (WiDR, a colon carcinoma): 0.25 µg/mL

CCC[CH2][Sn]([CH2]CCC)([O]C(=O)c1cccc(F)c1F)[O]C(=O)c1cccc(F)c1F [(2,3-F2 C6 H3 CO2)2 SnBu2]
ID50 (MCF-7, a mammary tumour): 0.023 µg/mL
ID50 (WiDR, a colon carcinoma): 0.283 µg/mL
ID50 compared with reference drug [1]: comparable to mitomycin C

CCC[CH2][Sn+2][CH2]CCC.O=C([O-])c1c(F)c(F)c(F)c(F)c1C(=O)[O-] [Di-n-butyltintetrafluorophthalate]
ID50 (MCF-7, a mammary tumour): 0.051 µg/mL
ID50 (WiDR, a colon carcinoma): 0.068 µg/mL
